In paper PMC4685510, “A Cell Biologist’s Field Guide to Aurora Kinase Inhibitors” (Frontiers in Oncology, 2015):

Columns and labels:
Experiment in all cases: biochemical
Format in all cases: biochemical
[1] = target: 363 human kinases (including Aurora A/B/C) (Homo sapiens, UniProt Q9H792); conditions: PEAK1; for remaining activity at 0.1 µM: 100 nM; for remaining activity at 0.1 µM / remaining activity at 0.5 µM: read-out: % Enzyme Activity (relative to DMSO controls)
Excerpt: (§1) However, the Aurora A/B selectivity ratios derived from our in vitro and in vivo data can be compared to prioritize inhibitors.

[2] = target: 363 human kinases (including Aurora A/B/C) (Homo sapiens, UniProt P08922); conditions: ROS/ROS1; for remaining activity at 0.1 µM: 100 nM; for remaining activity at 0.1 µM / remaining activity at 0.5 µM: read-out: % Enzyme Activity (relative to DMSO controls)
363 human kinases (including Aurora A/B/C) (Homo sapiens, UniProt P08922), sequence (P08922 28-2347): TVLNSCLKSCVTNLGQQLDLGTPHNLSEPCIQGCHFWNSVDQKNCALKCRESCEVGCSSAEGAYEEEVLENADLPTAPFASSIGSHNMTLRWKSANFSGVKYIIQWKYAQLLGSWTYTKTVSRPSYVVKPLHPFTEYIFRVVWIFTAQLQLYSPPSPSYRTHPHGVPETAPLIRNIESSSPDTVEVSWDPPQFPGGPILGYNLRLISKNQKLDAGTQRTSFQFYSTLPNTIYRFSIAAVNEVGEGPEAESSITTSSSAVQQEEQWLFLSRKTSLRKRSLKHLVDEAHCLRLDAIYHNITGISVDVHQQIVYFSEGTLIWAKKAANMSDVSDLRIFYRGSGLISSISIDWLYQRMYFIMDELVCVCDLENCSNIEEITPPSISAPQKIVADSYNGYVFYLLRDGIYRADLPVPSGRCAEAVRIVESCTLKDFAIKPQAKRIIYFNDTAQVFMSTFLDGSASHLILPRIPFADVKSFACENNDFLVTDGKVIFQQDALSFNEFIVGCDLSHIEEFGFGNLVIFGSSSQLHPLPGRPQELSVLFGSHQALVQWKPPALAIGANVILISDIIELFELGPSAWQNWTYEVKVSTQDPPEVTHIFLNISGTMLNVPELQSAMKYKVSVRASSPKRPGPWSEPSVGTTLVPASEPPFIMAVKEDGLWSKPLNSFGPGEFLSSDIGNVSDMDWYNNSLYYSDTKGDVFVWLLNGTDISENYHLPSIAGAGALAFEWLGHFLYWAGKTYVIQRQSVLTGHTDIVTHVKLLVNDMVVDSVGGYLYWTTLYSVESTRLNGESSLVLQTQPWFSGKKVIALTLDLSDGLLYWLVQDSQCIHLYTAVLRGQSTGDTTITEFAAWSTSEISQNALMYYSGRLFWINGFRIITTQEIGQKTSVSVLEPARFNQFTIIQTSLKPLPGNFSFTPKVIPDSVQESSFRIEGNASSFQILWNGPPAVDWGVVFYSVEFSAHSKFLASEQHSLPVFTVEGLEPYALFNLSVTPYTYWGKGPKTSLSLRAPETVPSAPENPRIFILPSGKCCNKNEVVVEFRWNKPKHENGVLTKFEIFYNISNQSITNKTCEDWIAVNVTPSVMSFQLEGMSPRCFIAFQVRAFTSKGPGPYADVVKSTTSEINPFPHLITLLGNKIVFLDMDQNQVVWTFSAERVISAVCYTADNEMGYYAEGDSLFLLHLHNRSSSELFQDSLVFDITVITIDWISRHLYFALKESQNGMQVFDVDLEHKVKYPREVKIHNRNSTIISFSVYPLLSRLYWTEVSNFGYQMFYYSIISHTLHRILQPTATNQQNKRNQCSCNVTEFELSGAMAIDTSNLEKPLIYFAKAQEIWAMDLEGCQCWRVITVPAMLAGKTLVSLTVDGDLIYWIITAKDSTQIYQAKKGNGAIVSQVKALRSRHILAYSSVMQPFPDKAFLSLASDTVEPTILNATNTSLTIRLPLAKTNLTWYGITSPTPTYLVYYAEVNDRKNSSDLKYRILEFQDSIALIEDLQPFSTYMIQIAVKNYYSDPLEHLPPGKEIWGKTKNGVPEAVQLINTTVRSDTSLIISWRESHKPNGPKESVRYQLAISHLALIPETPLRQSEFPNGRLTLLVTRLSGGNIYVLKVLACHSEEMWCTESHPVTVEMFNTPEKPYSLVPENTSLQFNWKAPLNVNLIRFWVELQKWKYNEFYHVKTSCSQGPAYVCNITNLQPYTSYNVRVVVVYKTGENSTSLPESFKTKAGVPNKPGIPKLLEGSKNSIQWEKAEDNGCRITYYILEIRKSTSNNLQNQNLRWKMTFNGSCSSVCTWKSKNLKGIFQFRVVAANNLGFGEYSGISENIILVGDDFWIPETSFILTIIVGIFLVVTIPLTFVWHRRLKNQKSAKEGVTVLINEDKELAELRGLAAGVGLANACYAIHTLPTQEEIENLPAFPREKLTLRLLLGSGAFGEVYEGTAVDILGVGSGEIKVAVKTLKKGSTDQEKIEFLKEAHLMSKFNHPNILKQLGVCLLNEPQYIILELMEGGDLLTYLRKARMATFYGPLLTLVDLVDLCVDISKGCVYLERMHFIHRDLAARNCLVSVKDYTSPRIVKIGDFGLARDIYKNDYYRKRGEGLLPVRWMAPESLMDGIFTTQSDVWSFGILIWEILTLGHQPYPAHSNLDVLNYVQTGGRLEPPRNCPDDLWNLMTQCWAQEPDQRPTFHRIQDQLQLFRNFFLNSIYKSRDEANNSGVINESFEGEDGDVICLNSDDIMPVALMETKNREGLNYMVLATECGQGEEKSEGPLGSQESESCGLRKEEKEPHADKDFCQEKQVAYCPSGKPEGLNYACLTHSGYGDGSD
Excerpt: as §1

[3] = target: 363 human kinases (including Aurora A/B/C) (Homo sapiens, UniProt P30291); conditions: WEE1; for remaining activity at 0.1 µM: 100 nM; for remaining activity at 0.1 µM / remaining activity at 0.5 µM: read-out: % Enzyme Activity (relative to DMSO controls)
Excerpt: as §1

[4] = target: 363 human kinases (including Aurora A/B/C) (Homo sapiens, UniProt Q06187); conditions: BTK, [ATP] 50 µM; for remaining activity at 0.1 µM: 100 nM; for remaining activity at 0.1 µM / remaining activity at 0.5 µM: read-out: % Enzyme Activity (relative to DMSO controls)
363 human kinases (including Aurora A/B/C) (Homo sapiens, UniProt Q06187), sequence (Q06187 whole entry): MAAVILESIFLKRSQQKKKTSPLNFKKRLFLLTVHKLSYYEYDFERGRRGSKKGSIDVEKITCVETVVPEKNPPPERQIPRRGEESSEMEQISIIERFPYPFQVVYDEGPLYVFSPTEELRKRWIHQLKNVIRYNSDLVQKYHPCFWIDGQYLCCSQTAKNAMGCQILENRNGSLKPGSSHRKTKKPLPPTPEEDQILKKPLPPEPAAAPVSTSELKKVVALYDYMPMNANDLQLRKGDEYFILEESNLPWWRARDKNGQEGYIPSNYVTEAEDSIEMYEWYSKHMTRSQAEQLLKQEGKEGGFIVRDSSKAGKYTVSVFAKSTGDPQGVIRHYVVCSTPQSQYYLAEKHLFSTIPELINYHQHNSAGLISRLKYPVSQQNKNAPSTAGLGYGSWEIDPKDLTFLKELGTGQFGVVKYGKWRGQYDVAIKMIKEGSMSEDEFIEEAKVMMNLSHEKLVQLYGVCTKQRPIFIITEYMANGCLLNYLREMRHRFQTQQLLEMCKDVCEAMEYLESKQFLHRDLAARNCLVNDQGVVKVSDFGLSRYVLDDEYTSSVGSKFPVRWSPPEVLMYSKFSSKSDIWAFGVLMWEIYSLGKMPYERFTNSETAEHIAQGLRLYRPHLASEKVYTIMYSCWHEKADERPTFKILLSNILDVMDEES
Excerpt: as §1

[5] = target: 363 human kinases (including Aurora A/B/C) (Homo sapiens, UniProt O00238); conditions: ALK6/BMPR1B, [ATP] 10 µM; for remaining activity at 0.1 µM: 100 nM; for remaining activity at 0.1 µM / remaining activity at 0.5 µM: read-out: % Enzyme Activity (relative to DMSO controls)
Excerpt: as §1

[6] = target: T1, 363 human kinases (including Aurora A/B/C) (Homo sapiens, UniProt Q13043); conditions: MST1/STK4; for remaining activity at 0.1 µM: 100 nM; for remaining activity at 0.1 µM / remaining activity at 0.5 µM: read-out: % Enzyme Activity (relative to DMSO controls)
T1 sequence (Q13043 1-487): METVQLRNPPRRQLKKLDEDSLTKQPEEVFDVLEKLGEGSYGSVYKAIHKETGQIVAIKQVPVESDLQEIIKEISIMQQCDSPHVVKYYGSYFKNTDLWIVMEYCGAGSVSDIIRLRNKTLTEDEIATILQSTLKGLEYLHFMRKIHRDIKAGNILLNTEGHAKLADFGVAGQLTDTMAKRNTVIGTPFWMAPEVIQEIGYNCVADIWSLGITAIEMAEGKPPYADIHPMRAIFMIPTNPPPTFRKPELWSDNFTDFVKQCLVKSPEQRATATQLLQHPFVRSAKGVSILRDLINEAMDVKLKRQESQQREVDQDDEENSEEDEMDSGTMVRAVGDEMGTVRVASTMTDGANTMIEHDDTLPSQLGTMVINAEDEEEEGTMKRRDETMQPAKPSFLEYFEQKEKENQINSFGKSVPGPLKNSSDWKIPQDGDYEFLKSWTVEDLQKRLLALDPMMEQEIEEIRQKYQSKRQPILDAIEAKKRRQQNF
Excerpt: as §1

[7] = target: 363 human kinases (including Aurora A/B/C) (Homo sapiens, UniProt Q15746); conditions: MLCK/MYLK; for remaining activity at 0.1 µM: 100 nM; for remaining activity at 0.1 µM / remaining activity at 0.5 µM: read-out: % Enzyme Activity (relative to DMSO controls)
Excerpt: as §1

[8] = target: T2, 363 human kinases (including Aurora A/B/C) (Homo sapiens, UniProt Q9UEE5); conditions: DRAK1/STK17A, [ATP] 30 µM; for remaining activity at 0.1 µM: 100 nM; for remaining activity at 0.1 µM / remaining activity at 0.5 µM: read-out: % Enzyme Activity (relative to DMSO controls)
T2 sequence (Q9UEE5 1-414): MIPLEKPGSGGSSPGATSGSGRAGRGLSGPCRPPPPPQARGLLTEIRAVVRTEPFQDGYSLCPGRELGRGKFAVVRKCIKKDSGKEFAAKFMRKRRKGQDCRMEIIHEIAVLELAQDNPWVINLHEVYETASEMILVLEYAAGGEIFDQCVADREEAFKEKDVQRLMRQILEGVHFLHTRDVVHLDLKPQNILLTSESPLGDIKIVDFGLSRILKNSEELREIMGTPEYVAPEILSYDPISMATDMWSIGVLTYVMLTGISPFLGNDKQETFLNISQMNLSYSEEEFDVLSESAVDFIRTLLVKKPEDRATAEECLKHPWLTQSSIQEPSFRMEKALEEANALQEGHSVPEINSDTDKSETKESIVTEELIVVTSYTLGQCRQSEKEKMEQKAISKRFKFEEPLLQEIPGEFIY
Excerpt: as §1

[9] = target: 363 human kinases (including Aurora A/B/C) (Homo sapiens, UniProt P08069); conditions: IGF1R; for remaining activity at 0.1 µM: 100 nM; for remaining activity at 0.1 µM / remaining activity at 0.5 µM: read-out: % Enzyme Activity (relative to DMSO controls)
363 human kinases (including Aurora A/B/C) (Homo sapiens, UniProt P08069), sequence (P08069 31-1367): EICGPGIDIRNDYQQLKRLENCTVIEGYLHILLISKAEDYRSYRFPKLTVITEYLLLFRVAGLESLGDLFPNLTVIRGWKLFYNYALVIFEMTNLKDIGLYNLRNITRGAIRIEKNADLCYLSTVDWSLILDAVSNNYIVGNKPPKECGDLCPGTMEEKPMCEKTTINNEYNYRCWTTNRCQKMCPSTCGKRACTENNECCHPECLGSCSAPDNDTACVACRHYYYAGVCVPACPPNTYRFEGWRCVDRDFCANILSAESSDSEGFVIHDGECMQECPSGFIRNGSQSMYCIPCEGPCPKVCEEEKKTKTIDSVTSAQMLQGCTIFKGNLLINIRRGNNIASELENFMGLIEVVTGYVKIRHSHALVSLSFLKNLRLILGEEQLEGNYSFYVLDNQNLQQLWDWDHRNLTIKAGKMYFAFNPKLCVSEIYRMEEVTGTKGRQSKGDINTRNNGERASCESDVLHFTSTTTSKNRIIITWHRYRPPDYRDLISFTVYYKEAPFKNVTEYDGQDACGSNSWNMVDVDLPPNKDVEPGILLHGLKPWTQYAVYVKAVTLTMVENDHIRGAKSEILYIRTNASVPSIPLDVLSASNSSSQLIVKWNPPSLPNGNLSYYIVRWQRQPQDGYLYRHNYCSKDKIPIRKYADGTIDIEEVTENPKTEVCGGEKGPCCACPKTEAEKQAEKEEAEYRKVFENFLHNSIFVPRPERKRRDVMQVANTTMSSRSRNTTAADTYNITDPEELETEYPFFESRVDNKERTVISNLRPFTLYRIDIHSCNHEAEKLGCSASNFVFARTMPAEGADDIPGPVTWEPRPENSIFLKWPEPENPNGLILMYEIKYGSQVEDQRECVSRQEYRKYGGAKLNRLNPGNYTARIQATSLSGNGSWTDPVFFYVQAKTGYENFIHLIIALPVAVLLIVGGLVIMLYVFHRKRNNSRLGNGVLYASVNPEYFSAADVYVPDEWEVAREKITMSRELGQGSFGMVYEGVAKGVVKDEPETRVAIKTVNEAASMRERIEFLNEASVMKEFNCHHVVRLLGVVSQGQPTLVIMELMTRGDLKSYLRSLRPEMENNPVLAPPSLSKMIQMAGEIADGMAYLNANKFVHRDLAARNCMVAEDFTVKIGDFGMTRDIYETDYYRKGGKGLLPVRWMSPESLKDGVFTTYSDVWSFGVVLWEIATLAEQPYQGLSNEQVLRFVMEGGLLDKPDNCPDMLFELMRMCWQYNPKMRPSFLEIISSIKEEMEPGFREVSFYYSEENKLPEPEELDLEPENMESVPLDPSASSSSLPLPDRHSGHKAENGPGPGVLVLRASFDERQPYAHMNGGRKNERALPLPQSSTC
Excerpt: as §1

[10] = target: T3, 363 human kinases (including Aurora A/B/C) (Homo sapiens, UniProt P29320); conditions: EPHA3, [ATP] 50 µM; for remaining activity at 0.1 µM: 100 nM; for remaining activity at 0.1 µM / remaining activity at 0.5 µM: read-out: % Enzyme Activity (relative to DMSO controls)
T3 sequence (P29320 21-983): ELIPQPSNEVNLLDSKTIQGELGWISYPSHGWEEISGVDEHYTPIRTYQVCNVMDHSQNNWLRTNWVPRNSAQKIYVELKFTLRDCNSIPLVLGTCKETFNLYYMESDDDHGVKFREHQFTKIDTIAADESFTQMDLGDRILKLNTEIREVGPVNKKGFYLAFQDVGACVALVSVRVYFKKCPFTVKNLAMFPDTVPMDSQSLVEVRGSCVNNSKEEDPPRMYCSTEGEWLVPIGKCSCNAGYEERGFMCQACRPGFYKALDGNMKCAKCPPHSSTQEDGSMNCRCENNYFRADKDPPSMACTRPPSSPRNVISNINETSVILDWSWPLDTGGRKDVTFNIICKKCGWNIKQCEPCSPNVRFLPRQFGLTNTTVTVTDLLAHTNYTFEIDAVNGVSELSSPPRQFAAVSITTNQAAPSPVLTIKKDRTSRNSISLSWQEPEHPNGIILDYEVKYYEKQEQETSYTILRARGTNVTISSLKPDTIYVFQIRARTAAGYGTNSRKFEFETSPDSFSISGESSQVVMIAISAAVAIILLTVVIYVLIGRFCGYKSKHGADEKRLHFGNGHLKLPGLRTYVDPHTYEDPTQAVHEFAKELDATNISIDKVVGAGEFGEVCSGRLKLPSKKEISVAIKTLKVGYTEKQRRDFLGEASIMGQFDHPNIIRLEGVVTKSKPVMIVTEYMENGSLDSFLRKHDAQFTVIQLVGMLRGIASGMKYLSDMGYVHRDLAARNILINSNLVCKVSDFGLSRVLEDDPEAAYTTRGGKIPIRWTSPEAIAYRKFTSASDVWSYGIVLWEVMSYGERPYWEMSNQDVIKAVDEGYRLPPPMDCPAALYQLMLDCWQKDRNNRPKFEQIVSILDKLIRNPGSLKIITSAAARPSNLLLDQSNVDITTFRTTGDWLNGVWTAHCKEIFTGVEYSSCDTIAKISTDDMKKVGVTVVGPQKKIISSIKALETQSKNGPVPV
Excerpt: as §1

[11] = target: 363 human kinases (including Aurora A/B/C) (Homo sapiens, UniProt Q13555); conditions: CAMK2g, [ATP] 2.5 µM; for remaining activity at 0.1 µM: 100 nM; for remaining activity at 0.1 µM / remaining activity at 0.5 µM: read-out: % Enzyme Activity (relative to DMSO controls)
363 human kinases (including Aurora A/B/C) (Homo sapiens, UniProt Q13555), sequence (Q13555 whole entry): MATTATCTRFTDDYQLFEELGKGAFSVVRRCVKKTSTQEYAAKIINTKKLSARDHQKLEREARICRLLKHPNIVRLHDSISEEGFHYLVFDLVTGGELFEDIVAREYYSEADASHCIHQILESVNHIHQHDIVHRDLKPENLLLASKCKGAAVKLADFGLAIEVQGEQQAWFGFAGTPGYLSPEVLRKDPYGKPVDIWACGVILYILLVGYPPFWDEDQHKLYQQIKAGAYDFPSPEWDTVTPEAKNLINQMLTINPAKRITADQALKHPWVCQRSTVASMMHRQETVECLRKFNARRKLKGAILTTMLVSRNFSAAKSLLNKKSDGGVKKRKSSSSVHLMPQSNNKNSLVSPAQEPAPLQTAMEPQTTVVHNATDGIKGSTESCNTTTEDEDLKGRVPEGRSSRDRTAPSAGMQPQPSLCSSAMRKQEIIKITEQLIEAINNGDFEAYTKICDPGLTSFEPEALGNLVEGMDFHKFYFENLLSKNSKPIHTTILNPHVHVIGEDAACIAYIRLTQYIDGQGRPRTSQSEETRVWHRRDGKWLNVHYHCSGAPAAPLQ
Excerpt: as §1

SMILES	remaining activity at 0.1 µM [1] [%]	remaining activity at 0.1 µM [2] [%]	remaining activity at 0.1 µM [3] [%]	remaining activity at 0.1 µM [4] [%]	remaining activity at 0.1 µM [5] [%]	remaining activity at 0.1 µM [6] [%]	remaining activity at 0.1 µM [7] [%]	remaining activity at 0.1 µM [8] [%]	remaining activity at 0.1 µM [9] [%]	remaining activity at 0.1 µM [10] [%]	remaining activity at 0.1 µM [11] [%]	remaining activity at 0.5 µM ([1]; 500 nM) [%]	remaining activity at 0.5 µM ([2]; 500 nM) [%]	remaining activity at 0.5 µM ([3]; 500 nM) [%]	remaining activity at 0.5 µM ([4]; 500 nM) [%]	remaining activity at 0.5 µM ([5]; 500 nM) [%]	remaining activity at 0.5 µM ([6]; 500 nM) [%]	remaining activity at 0.5 µM ([7]; 500 nM) [%]	remaining activity at 0.5 µM ([8]; 500 nM) [%]	remaining activity at 0.5 µM ([9]; 500 nM) [%]	also measured
CCn1cc(-c2ccnc3[nH]c(-c4cccc(CN(C)C)c4)cc23)c(-c2ccc(NC(=O)N(C)C)cc2)n1 [GSK1070916]	90	102	97	102	89.2	105	96.9	109	97.9	93.1	94.5	–	–	–	–	–	–	–	–	–	–
O=C(O)[C@]1(Cc2cccc(Nc3nccs3)n2)CC[C@@H](Oc2cccc(Cl)c2F)CC1 [MK-5108]	30.5	0.98	106	69.8	101	81.8	89.1	105	81.1	67.4	91.1	11.6	1.15	93.4	30.2	46.2	65.6	73.5	102	43.9	remaining activity at 0.5 µM ([10]; 500 nM): 31.4%; remaining activity at 0.5 µM ([11]; 500 nM): 94.4%
O=C(c1cccc(Cl)c1F)N1CCN(Cc2cccc(Nc3nccs3)n2)CC1 [MK-8745]	–	–	–	–	–	–	–	–	–	–	–	39.1	3.49	105	94.5	92	46.6	90.7	104	66.7	% Enzyme Activity (relative to DMSO controls) ([1]; 500 nM): 38.63%; % Enzyme Activity (relative to DMSO controls) ([2]; 500 nM): 3.19%; % Enzyme Activity (relative to DMSO controls) ([3]; 500 nM): 99.94%; % Enzyme Activity (relative to DMSO controls) ([4]; 500 nM): 94.23%; % Enzyme Activity (relative to DMSO controls) ([5]; 500 nM): 91.78%; % Enzyme Activity (relative to DMSO controls) ([6]; 500 nM): 46.49%; % Enzyme Activity (relative to DMSO controls) ([7]; 500 nM): 89.65%; % Enzyme Activity (relative to DMSO controls) ([8]; 500 nM): 102.39%; % Enzyme Activity (relative to DMSO controls) ([9]; 500 nM): 65.00%; % Enzyme Activity (relative to DMSO controls) ([10]; 500 nM): 84.89%; remaining activity at 0.5 µM ([10]; 500 nM): 85.5%; % Enzyme Activity (relative to DMSO controls) ([11]; 500 nM): 92.25%; remaining activity at 0.5 µM ([11]; 500 nM): 94.3%
